Test results as given in US20250169499A1, “IMAZAMOX AND GLYPHOSATE FOR CONTROLLING DIGITARIA INSULARIS” (BASF AGROCHEMICAL PRODUCTS B.V., priority 2021, published 2025).

Columns and labels:
Assay type in all cases: in vivo, Digitaria insularis
Settings in all cases: DASH 0.5% v/v
[1] = tested on: D. insularis (perennial); test: Field trial, post-emergence application A (desiccation 30 days before soybean sowing), visual weed control rated 14 DAA-A
Experimental: (§1) A soil sample from the experimental site was analyzed and provided pH H2O 5.3; 0 cmolc H+Al^+3/dm^3; 4.2 cmolc/dm^3 Ca^+2; 1.6 cmolc/dm^3 Mg^+2; 242 mg/dm^3 K^+; 42.3 mg/dm^3 P; 18% sand; 15% silt and 67% clay.
(§2) For all herbicide applications, the applications were made using a backpack sprayer that was pressurized by CO2 with six flat fan nozzles XR110.015 at 3 bar, which caused the application volume to reach 150 L ha^−1.
(§3) Glyphosate was used as a commercially available soluble concentrate (SL)-formulation containing glyphosate as its potassium salt (480 g/l of glyphosate in its acid form), which is commercially available under the trade name Roundup Transorb R.
(§4) Imazamox was used as a commercially available water dispersible granule (WG)-formulation containing 700 g/Kg of imazamox, which is commercially available under the trade name Raptor® 70 DG.
(§5) In table 1, all details related to mode of application of herbicides, and climatic conditions during herbicide application are listed.
Crop sowing (in case of A and B; in case of A*, no crops were sown) was carried out under a no-tillage system, by distributing 16 seeds per meter of a M6410® soybean variety in all treatments with Raptor® 70 DG and also 16 seeds m^−1 of a second soybean cultivar (BMX Potência RR) in the remaining treatments. Immediately before sowing, the seeds of both cultivars were treated with a formulation of fipronil, pyraclostrobin and thiophanate methyl (Standak® Top; 200 mL per ha). Crop fertilization was performed with 300 kg ha^−1 of a commercial N-P-K formulation (02-20-18). […]
After the first application (application “A” and “A*”), two evaluations were performed on the effect of treatments on the weeds emerged at that application. For those evaluations, the infestation of the untreated control is used as reference. These assessments for the damage caused by the herbicides A and B, and the binary herbicide combination thereof were carried out at 14 days after application “A” (14 DAA-A) or 35 days after application “A*” (35-DAA-A*) using a scale from 0 to 100%, compared to the untreated control plants. Here, 0 means no damage and 100 means complete destruction of the plants.
The value E, which is to be expected if the activity of the individual compounds is just additive, was calculated using the method of S. R. Colby (1967) “Calculating synergistic and antagonistic responses of herbicide combinations”, Weeds 15, p. 22 ff. For two component mixtures the value E was calculated by the following formula […]
(§6) If the value observed in this manner is higher than the value E calculated according to Colby, a synergistic effect is present. […]

[2] = tested on: D. insularis (early stage - 2 to 6 leaves); test: Field trial, post-emergence application A* (no soybean sowing), visual weed control rated 35 DAA-A*
Experimental: as §1, §2
Glyphosate was used as a commercially available soluble concentrate (SL)-formulation containing glyphosate as its potassium salt (480 g/l of glyphosate in its acid form), which is commercially available under the trade name Roundup Transorb R. […]
(§7) The value E, which is to be expected if the activity of the individual compounds is just additive, was calculated using the method of S. R. Colby (1967) “Calculating synergistic and antagonistic responses of herbicide combinations”, Weeds 15, p. […] For two component mixtures the value E was calculated by the following formula […]
as §6
(§8) The results are summarized in the following tables 2, 3 and 4 that show the herbicidal activity of the individual actives and of their combinations in post-emergence application assessed 14, 28 and 35 day after treatment (DAT), respectively.

[3] = tested on: D. insularis (flowering); test: Field trial, post-emergence application B (desiccation 0 days before soybean sowing), visual weed control rated 28 DAA-B
Experimental: as §1, §2, §3, §4, §5
Crop sowing (in case of A and B; in case of A*, no crops were sown) was carried out under a no-tillage system, by distributing 16 seeds per meter of a M6410® soybean variety in all treatments with Raptor® 70 DG and also 16 seeds m^−1 of a second soybean cultivar (BMX Potência RR) in the remaining treatments. Immediately before sowing, the seeds of both cultivars were treated with a formulation of fipronil, pyraclostrobin and thiophanate methyl (Standak® Top; 200 mL per ha). Crop fertilization was performed with 300 kg ha^−1 of a commercial N-P-K formulation (02-20-18).
For the post-emergence treatment, the test plants were first grown to a height of 3 to 20 cm, depending on the plant habit, and only then treated. Here, the herbicidal compositions were suspended or emulsified in water as distribution medium and sprayed using finely distributing nozzles.
Herbicide B was formulated as 10% by weight strength suspension concentrate and introduced to the spray liquor with the amount of solvent system used for applying the active compound. […]
as §7, §6, §8

In the case of `O=C(O)CNCP(=O)(O)O` [Herbicide A, N-(phosphonomethyl)glycine], the “Control (%) of D. insularis (perennial)” value ([1]; dose 1080 g ai/ha, scale 0-100% vs untreated) is reported as 5%, the “Control (%) of D. insularis (early stage - 2 to 6 leaves)” value ([2]; dose 1080 g ai/ha) is reported as 5% and the “Control (%) of D. insularis (flowering)” value ([3]; dose 1440 g ai/ha) is reported as 45%.

`COCc1cnc(C2=NC(C)(C(C)C)C(=O)N2)c(C(=O)O)c1` (stereo not shown) [Herbicide B, 2-(4-isopropyl-4-methyl-5-oxo-2-imidazolin-2-yl)-5-(methoxymethyl)nicotinic acid] was tested, and the “Control (%) of D. insularis (perennial)” value ([1]; dose 49 g ai/ha) was 13%, the “Control (%) of D. insularis (perennial)” value ([1]; dose 70 g ai/ha) was 20% and the “Control (%) of D. insularis (perennial)” value ([1]; dose 91 g ai/ha) was 20%. For the same molecule, the “Control (%) of D. insularis (early stage - 2 to 6 leaves)” value ([2]; dose 105 g ai/ha) was 13%, the “Control (%) of D. insularis (flowering)” value ([3]; dose 70 g ai/ha) was 40% and the “Control (%) of D. insularis (flowering)” value ([3]; dose 105 g ai/ha) was 40%. For the same molecule, the “Control (%) of D. insularis (flowering)” value ([3]; dose 140 g ai/ha) was 50%.
